# Assay results: ChEMBL document CHEMBL4616720 (J Med Chem, 2020)
# Legend:
# [1] = Clearance in Sprague-Dawley rat at 2 mg/kg, iv measured up to 24 hrs by LC-MS/MS analysis; type: ADME, organism-based; details: in vivo
# HCT-116 [2] = experiment: Antitumor activity against human HCT116 cells xenografted in ip dosed BALB/c nude mouse assessed as tumor growth inhibition administered every 3 days for 21 days and measured every second day for 21 days during compound dosing by digital caliper method; type: functional, organism-based
# HCT-116 [3] = experiment: Antiproliferative activity against human HCT116 cells assessed as reduction in cell growth measured after 48 hrs by CCK8 assay; type: functional, cell-based; details: HCT-116, 48 h
# MCF7 = experiment: Antiproliferative activity against human MCF7 cells assessed as reduction in cell growth measured after 48 hrs by CCK8 assay; type: functional, cell-based; details: MCF7, 48 h
# A549 [4] = experiment: Induction of apoptosis in human A549 cells assessed as necrotic cells at 40 uM measured after 48 hrs by Annexin V-FITC/propidium iodide staining based FACSClibur flow cytometry analysis (reference value: 0.49 %); type: functional
# A549 [5] = experiment: Induction of apoptosis in human A549 cells assessed as necrotic cells at 40 uM measured after 24 hrs by Annexin V-FITC/propidium iodide staining based FACSClibur flow cytometry analysis (reference value: 0.37 %); type: functional
# [6] = Terminal half life in Sprague-Dawley rat at 2 mg/kg, iv measured up to 24 hrs by LC-MS/MS analysis; type: ADME, organism-based; details: in vivo, read-out: beta t1/2 (converted)
# A549 [7] = experiment: Induction of apoptosis in human A549 cells assessed as early apoptotic cells at 40 uM measured after 24 hrs by Annexin V-FITC/propidium iodide staining based FACSClibur flow cytometry analysis (reference value: 0.35 %); type: functional
# [8] = Selectivity index, ratio of IC50 for human MCF10A cells assessed as reduction in cell growth measured after 48 hrs by CCK8 assay to IC50 for human A549 cells assessed as reduction in cell growth measured after 48 hrs by CCK8; type: toxicity; details: MCF10A cells versus A549 cells, read-out: Ratio IC50
# [9] = target: T1, Protein deacetylase HDAC6 (Homo sapiens, UniProt Q9UBN7); experiment: Inhibition of HDAC6 (unknown origin) using Boc-Lys(Ac)-pNA as substrate preincubated for 20 mins followed by substrate addition and further incubated for 90 mins by fluorescence assay
# T1 sequence (Q9UBN7 whole entry): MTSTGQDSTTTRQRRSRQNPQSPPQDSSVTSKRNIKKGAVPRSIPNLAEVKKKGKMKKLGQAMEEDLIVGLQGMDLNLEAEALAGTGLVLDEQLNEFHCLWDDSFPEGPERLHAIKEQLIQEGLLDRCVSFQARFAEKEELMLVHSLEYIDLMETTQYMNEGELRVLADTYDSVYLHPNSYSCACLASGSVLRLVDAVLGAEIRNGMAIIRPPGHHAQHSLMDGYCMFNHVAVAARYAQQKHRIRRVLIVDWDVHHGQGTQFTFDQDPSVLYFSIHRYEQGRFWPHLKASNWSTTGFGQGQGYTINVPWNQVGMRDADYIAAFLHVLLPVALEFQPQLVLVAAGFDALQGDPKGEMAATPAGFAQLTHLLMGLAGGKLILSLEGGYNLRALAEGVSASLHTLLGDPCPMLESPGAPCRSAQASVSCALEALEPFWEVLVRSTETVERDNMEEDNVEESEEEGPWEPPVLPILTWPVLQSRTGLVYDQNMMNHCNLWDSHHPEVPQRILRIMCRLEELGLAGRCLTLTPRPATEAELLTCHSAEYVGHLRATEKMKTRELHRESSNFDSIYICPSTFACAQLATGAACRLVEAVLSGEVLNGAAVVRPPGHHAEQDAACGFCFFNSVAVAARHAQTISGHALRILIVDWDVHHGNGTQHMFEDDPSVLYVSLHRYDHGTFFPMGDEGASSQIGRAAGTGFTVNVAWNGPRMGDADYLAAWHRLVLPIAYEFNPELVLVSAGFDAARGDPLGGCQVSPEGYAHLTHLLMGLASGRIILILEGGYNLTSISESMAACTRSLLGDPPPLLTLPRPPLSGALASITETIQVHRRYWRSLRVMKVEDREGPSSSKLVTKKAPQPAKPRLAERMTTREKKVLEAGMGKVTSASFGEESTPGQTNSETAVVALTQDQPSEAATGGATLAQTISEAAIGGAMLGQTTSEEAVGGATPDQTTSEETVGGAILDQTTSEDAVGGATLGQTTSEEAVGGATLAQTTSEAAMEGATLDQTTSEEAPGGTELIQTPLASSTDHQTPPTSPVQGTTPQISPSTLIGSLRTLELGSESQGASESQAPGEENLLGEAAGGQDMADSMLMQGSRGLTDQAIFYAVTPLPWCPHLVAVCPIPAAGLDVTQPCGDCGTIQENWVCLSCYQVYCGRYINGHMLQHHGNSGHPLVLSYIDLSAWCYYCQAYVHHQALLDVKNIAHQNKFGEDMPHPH
# HCT-116 [10] = experiment: Antitumor activity against human HCT116 cells xenografted in BALB/c nude mouse assessed as tumor growth inhibition at 50 mg/kg, ip administered every 3 days for 21 days and measured every second day for 21 days during compound dosing by digital caliper method relative to control; type: functional; details: HCT-116, ip, read-out: TGI
# [11] = Drug concentration in plasma of Sprague-Dawley rat at 2 mg/kg, iv measured after 5 mins by LC-MS/MS analysis; type: ADME, organism-based
# MCF-10A = experiment: Cytotoxicity against human MCF10A cells assessed as reduction in cell growth measured after 48 hrs by CCK8 assay; type: cell-based
# A549 [12] = experiment: Antiproliferative activity against human A549 cells assessed as reduction in cell growth measured after 48 hrs by CCK8 assay; type: functional, cell-based; details: A549, 48 h
# Histone deacetylase 1 = Histone deacetylase 1 (Homo sapiens, UniProt Q13547); experiment: Inhibition of HDAC1 (unknown origin) at 10 uM using Boc-Lys(Ac)-pNA as substrate preincubated for 20 mins followed by substrate addition and further incubated for 90 mins by fluorescence assay relative to control
# Sequence of Histone deacetylase 1 (Q13547 whole entry): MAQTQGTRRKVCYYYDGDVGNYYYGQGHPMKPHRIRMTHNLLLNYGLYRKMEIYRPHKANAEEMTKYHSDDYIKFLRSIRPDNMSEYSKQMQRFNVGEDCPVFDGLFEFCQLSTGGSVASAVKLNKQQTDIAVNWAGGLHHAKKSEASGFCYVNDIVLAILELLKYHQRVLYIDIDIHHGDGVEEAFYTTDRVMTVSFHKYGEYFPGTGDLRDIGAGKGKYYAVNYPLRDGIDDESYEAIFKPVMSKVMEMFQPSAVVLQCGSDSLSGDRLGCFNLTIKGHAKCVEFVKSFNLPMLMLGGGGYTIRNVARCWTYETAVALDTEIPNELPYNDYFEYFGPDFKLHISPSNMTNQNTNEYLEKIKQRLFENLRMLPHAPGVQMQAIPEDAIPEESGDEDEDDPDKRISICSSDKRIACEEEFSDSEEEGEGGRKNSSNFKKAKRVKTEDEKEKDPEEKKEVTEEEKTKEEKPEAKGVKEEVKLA
# [13] = Toxicity in KM mouse assessed as weight loss at 262.1 to 640 mg/kg, ip administered as single dose measured 3 times per week for 14 days; type: organism-based; details: in vivo, 336 h
# A549 [14] = experiment: Induction of apoptosis in human A549 cells assessed as early apoptotic cells at 40 uM measured after 48 hrs by Annexin V-FITC/propidium iodide staining based FACSClibur flow cytometry analysis (reference value: 0.40 %); type: functional
# [15] = Toxicity in BALB/c nude mouse xenografted with human HCT116 cells assessed as body weight loss at 25 to 50 mg/kg, ip administered every 3 days for 21 days measured on day 7 relative to control; type: organism-based, HCT-116; details: in vivo
# [16] = Selectivity index, ratio of IC50 for human MCF10A cells assessed as reduction in cell growth measured after 48 hrs by CCK8 assay to IC50 for human SJSA1 cells assessed as reduction in cell growth measured after 48 hrs by CCK8; type: toxicity; details: MCF10A cells versus SJSA1 cells, read-out: Ratio IC50
# [17] = Toxicity in KM mouse assessed as behavioral changes at <262 mg/kg, ip administered as single dose measured daily for 14 days; type: organism-based; details: in vivo, 336 h
# SJSA-1 = experiment: Antiproliferative activity against human SJSA1 cells assessed as reduction in cell growth measured after 48 hrs by CCK8 assay; type: functional, cell-based; details: SJSA-1, 48 h
compound,measurement,setting,value
O=C(C[C@@H](CC1CCCC1)C(=O)N1CC2(CC2)C[C@H]1c1nc(-c2ccc(F)cc2C(F)(F)F)no1)NO,CL,[1],26.68 L/kg/h
same,TGI,HCT-116 [2],Dose-dependent effect
same,IC50,HCT-116 [3],1980 nM
same,IC50,MCF7,4.65 µM
same,Activity,A549 [4],1.01%
same,Activity,A549 [5],1.12%
same,half-life,[6],222 min
same,Activity,A549 [7],4.03%
same,selectivity ratio at 48 h,[8],9
same,IC50,[9],> 10 µM
same,inhibition in vivo at 50 mg/kg,HCT-116 [10],72.5%
same,concentration at 5 min,[11],136 ng/mL
same,IC50,MCF-10A,18.1 µM
same,IC50,A549 [12],2580 nM
same,inhibition,Histone deacetylase 1,-0.35%
same,Activity,[13],Toxic
same,Activity,A549 [14],12.6%
same,Activity,[15],5%
same,selectivity ratio at 48 h,[16],9
same,Activity,[17],Non-Toxic
same,IC50,SJSA-1,1940 nM
